Experimental data published in PubChem BioAssay AID342 (DTP/NCI, 2004).
“And” between values parts separate entries of the source, which are not always exact repeats. Equal values may be shown once.

Test system: Swiss mice, Sarcoma 180 sc, mean tumor weight T/C
Experiment: NCI In Vivo Anticancer Drug Screen. Data for tumor model Sarcoma 180 (subcutaneous) in Swiss mice
Conditions: endpoint: mean tumor weight, higher = larger tumour
Summary of the method: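 Antitumor activity is assessed in mice with transplantable tumors. Treated (T) and vehicle control (C) groups are compared on survival or tumor size.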

[1] = dose: 12.0 mg/kg/injection, schedule: Q01DX007 (ip), vehicle: carboxymethylcellulose (CMC)

## O=C(O)Cc1c[nH]c2ccccc12
dose: 31.3 mg/kg/injection, schedule: Q01DX007 (ip), vehicle: saline
  T/C: 64 % of control
dose: 62.5 mg/kg/injection, schedule: Q01DX007 (ip), vehicle: saline
  T/C: 71 % of control
dose: 125.0 mg/kg/injection, schedule: Q01DX007 (ip), vehicle: saline
  T/C: 52 % of control
dose: 250.0 mg/kg/injection, schedule: Q01DX007 (ip), vehicle: saline
  T/C: 95 % of control

## CC1OC(OC2C(CO)OC(O[C@H]3CC[C@@]4(C)C(=CC[C@H]5[C@@H]6C[C@@H]7O[C@@]8(CC[C@H](C)CN8)[C@@H](C)[C@@H]7[C@@]6(C)CC[C@@H]54)C3)C(OC3OC(C)C(O)C(O)C3O)C2O)C(O)C(O)C1O (stereo partly drawn)
dose: 5.0 mg/kg/injection, schedule: Q01DX007 (ip), vehicle: saline
  T/C: 51 % of control
dose: 15.0 mg/kg/injection, schedule: Q01DX007 (ip), vehicle: saline
  T/C: 62 % of control
dose: 20.0 mg/kg/injection, schedule: Q01DX007 (ip), vehicle: saline
  T/C: 15 % of control
dose: 30.0 mg/kg/injection, schedule: Q01DX007 (ip), vehicle: saline
  T/C: 21 % of control
dose: 40.0 mg/kg/injection, schedule: Q01DX007 (ip), vehicle: saline
  T/C: 16 % of control

## CC1(C)O[C@@H]2C[C@H]3[C@@H]4CCC5=CC(=O)CC[C@]5(C)[C@@]4(F)[C@@H](O)C[C@]3(C)[C@]2(C(=O)CO)O1
dose: 2.2 mg/kg/injection, schedule: Q#A X014 (sc), vehicle: steriod suspending solution
  T/C: 53 % of control and 63 % of control
dose: 2.3 mg/kg/injection, schedule: Q01DX007 (sc), vehicle: steriod suspending solution
  T/C: 61 % of control
dose: 3.3 mg/kg/injection, schedule: Q#A X014 (sc), vehicle: steriod suspending solution
  T/C: 62 % of control
dose: 3.5 mg/kg/injection, schedule: Q01DX007 (sc), vehicle: steriod suspending solution
  T/C: 47 % of control
dose: 5.0 mg/kg/injection, schedule: Q#A X014 (sc), vehicle: steriod suspending solution
  T/C: 27 % of control
dose: 5.3 mg/kg/injection, schedule: Q01DX007 (sc), vehicle: steriod suspending solution
  T/C: 43 % of control
dose: 7.5 mg/kg/injection, schedule: Q#A X014 (sc), vehicle: steriod suspending solution
  T/C: 24 % of control
dose: 12.0 mg/kg/injection, schedule: Q01DX007 (sc), vehicle: steriod suspending solution
  T/C: 36 % of control
dose: 27.0 mg/kg/injection, schedule: Q01DX007 (sc), vehicle: steriod suspending solution
  T/C: 39 % of control and 40 % of control
dose: 40.0 mg/kg/injection, schedule: Q01DX007 (sc), vehicle: steriod suspending solution
  T/C: 32 % of control
dose: 60.0 mg/kg/injection, schedule: Q01DX007 (sc), vehicle: steriod suspending solution
  T/C: 24 % of control
dose: 90.0 mg/kg/injection, schedule: Q01DX007 (sc), vehicle: steriod suspending solution
  T/C: 19 % of control and 30 % of control
dose: 130.0 mg/kg/injection, schedule: Q01DX007 (sc), vehicle: steriod suspending solution
  T/C: 16 % of control

## CC(=O)Nc1cc2c(cc1Br)-c1ccccc1C2O (stereo not drawn)
dose: 48.0 mg/kg/injection, schedule: Q01DX007 (ip), vehicle: other
  T/C: 60 % of control
dose: 73.0 mg/kg/injection, schedule: Q01DX007 (ip), vehicle: other
  T/C: 93 % of control
dose: 130.0 mg/kg/injection, schedule: Q01DX007 (ip), vehicle: saline
  T/C: 40 % of control and 56 % of control
dose: 195.0 mg/kg/injection, schedule: Q01DX007 (ip), vehicle: saline
  T/C: 107 % of control
dose: 250.0 mg/kg/injection, schedule: Q01DX007 (ip), vehicle: other
  T/C: 36 % of control
dose: 375.0 mg/kg/injection, schedule: Q01DX007 (ip), vehicle: other
  T/C: 46 % of control
dose: 560.0 mg/kg/injection, schedule: Q01DX007 (ip), vehicle: other
  T/C: 32 % of control

## CCCCCCCCCCCCOP(N)(=O)OCCCCCCCCCCCC
dose: 20.0 mg/kg/injection, schedule: Q01DX007 (ip), vehicle: carboxymethylcellulose (CMC)
  T/C: 73 % of control
dose: 55.0 mg/kg/injection, schedule: Q01DX007 (ip), vehicle: carboxymethylcellulose (CMC)
  T/C: 86 % of control
dose: 55.5 mg/kg/injection, schedule: Q01DX007 (ip), vehicle: carboxymethylcellulose (CMC)
  T/C: 49 % of control
dose: 80.0 mg/kg/injection, schedule: Q01DX007 (ip), vehicle: carboxymethylcellulose (CMC)
  T/C: 103 % of control
dose: 83.0 mg/kg/injection, schedule: Q01DX007 (ip), vehicle: carboxymethylcellulose (CMC)
  T/C: 71 % of control
dose: 83.3 mg/kg/injection, schedule: Q01DX007 (ip), vehicle: carboxymethylcellulose (CMC)
  T/C: 54 % of control
dose: 120.0 mg/kg/injection, schedule: Q01DX007 (ip), vehicle: carboxymethylcellulose (CMC)
  T/C: 54 % of control
dose: 125.0 mg/kg/injection, schedule: Q01DX007 (ip), vehicle: carboxymethylcellulose (CMC)
  T/C: 42 % of control
dose: 187.5 mg/kg/injection, schedule: Q01DX007 (ip), vehicle: carboxymethylcellulose (CMC)
  T/C: 22 % of control

## CCC(=O)O[C@H]1CC[C@H]2[C@@H]3CC[C@H]4CC(=O)[C@H](C)C[C@]4(C)[C@H]3CC[C@]12C
dose: 125.0 mg/kg/injection, schedule: Q01DX007 (sc), vehicle: steriod suspending solution
  T/C: 77 % of control
dose: 250.0 mg/kg/injection, schedule: Q01DX007 (sc), vehicle: steriod suspending solution
  T/C: 101 % of control
dose: 500.0 mg/kg/injection, schedule: Q01DX007 (sc), vehicle: steriod suspending solution
  T/C: 121 % of control
dose: 1000.0 mg/kg/injection, schedule: Q01DX007 (sc), vehicle: steriod suspending solution
  T/C: 62 % of control

## C[C@@H]1C[C@@H]([C@H](O)CC2CC(=O)NC(=O)C2)C(=O)[C@@H](C)C1
dose: 3.0 mg/kg/injection, schedule: Q#A X014 (ip), vehicle: carboxymethylcellulose (CMC)
  T/C: 79 % of control and 92 % of control
dose: 6.25 mg/kg/injection, schedule: Q#A X014 (ip), vehicle: carboxymethylcellulose (CMC)
  T/C: 77 % of control
dose: 9.6 mg/kg/injection, schedule: Q01DX007 (ip), vehicle: carboxymethylcellulose (CMC)
  T/C: 85 % of control and 96 % of control and 106 % of control
[1]
  T/C: 100 % of control (2×) and 122 % of control
dose: 12.0 mg/kg/injection, schedule: Q#A X014 (ip), vehicle: carboxymethylcellulose (CMC)
  T/C: 38 % of control and 63 % of control
dose: 12.5 mg/kg/injection, schedule: Q#A X014 (ip), vehicle: carboxymethylcellulose (CMC)
  T/C: 68 % of control
dose: 24.0 mg/kg/injection, schedule: Q01DX007 (ip), vehicle: carboxymethylcellulose (CMC)
  T/C: 58 % of control and 60 % of control and 65 % of control

## COC1C(OC(=O)/C=C/C=C/C=C/C=C/C(=O)O)CCC2(CO2)C1C1(C)OC1CC=C(C)C (stereo not drawn)
dose: 2.5 mg/kg/injection, schedule: Q#A X014 (ip), vehicle: saline
  T/C: 70 % of control
dose: 5.0 mg/kg/injection, schedule: Q#A X014 (ip), vehicle: methylcellulose (MC)
  T/C: 76 % of control
dose: 5.0 mg/kg/injection, schedule: Q#A X014 (ip), vehicle: saline
  T/C: 54 % of control
dose: 6.0 mg/kg/injection, schedule: Q01DX007 (ip), vehicle: carboxymethylcellulose (CMC)
  T/C: 62 % of control
dose: 6.3 mg/kg/injection, schedule: Q01DX007 (ip), vehicle: carboxymethylcellulose (CMC)
  T/C: 58 % of control
dose: 10.0 mg/kg/injection, schedule: Q#A X014 (ip), vehicle: methylcellulose (MC)
  T/C: 50 % of control
dose: 10.0 mg/kg/injection, schedule: Q#A X014 (ip), vehicle: saline
  T/C: 58 % of control
[1]
  T/C: 60 % of control
dose: 12.5 mg/kg/injection, schedule: Q01DX007 (ip), vehicle: carboxymethylcellulose (CMC)
  T/C: 84 % of control
dose: 20.0 mg/kg/injection, schedule: Q#A X014 (ip), vehicle: methylcellulose (MC)
  T/C: 50 % of control
dose: 20.0 mg/kg/injection, schedule: Q#A X014 (ip), vehicle: saline
  T/C: 51 % of control
dose: 25.0 mg/kg/injection, schedule: Q01DX007 (ip), vehicle: carboxymethylcellulose (CMC)
  T/C: 41 % of control and 53 % of control and 63 % of control
dose: 40.0 mg/kg/injection, schedule: Q#A X014 (ip), vehicle: methylcellulose (MC)
  T/C: 38 % of control
dose: 40.0 mg/kg/injection, schedule: Q#A X014 (ip), vehicle: saline
  T/C: 39 % of control
dose: 80.0 mg/kg/injection, schedule: Q#A X014 (ip), vehicle: methylcellulose (MC)
  T/C: 19 % of control
dose: 200.0 mg/kg/injection, schedule: Q01DX007 (ip), vehicle: carboxymethylcellulose (CMC)
  T/C: 17 % of control and 36 % of control

## Cc1[nH]ccc2c(C)c3nc4ccccc4c3cc12
dose: 25.0 mg/kg/injection, schedule: Q01DX007 (ip), vehicle: water
  T/C: 171 % of control
dose: 50.0 mg/kg/injection, schedule: Q01DX007 (ip), vehicle: water
  T/C: 122 % of control
dose: 100.0 mg/kg/injection, schedule: Q01DX007 (ip), vehicle: water
  T/C: 116 % of control
dose: 200.0 mg/kg/injection, schedule: Q01DX007 (ip), vehicle: water
  T/C: 42 % of control

## CC(C)(C)C(=O)/C=C/c1ccc([N+](=O)[O-])cc1
dose: 50.0 mg/kg/injection, schedule: Q#A X014 (ip), vehicle: methylcellulose (MC)
  T/C: 92 % of control
dose: 187.5 mg/kg/injection, schedule: Q#A X014 (ip), vehicle: methylcellulose (MC)
  T/C: 70 % of control

## CO[C@H]1CC[C@@]2(C)C(=CC[C@@H]3[C@@H]2CC[C@]2(C)C(=O)C(=O)C[C@@H]32)C1
dose: 22.0 mg/kg/injection, schedule: Q01DX007 (sc), vehicle: steriod suspending solution
  T/C: 154 % of control
dose: 33.0 mg/kg/injection, schedule: Q01DX007 (sc), vehicle: steriod suspending solution
  T/C: 74 % of control
